Source: ChEMBL document CHEMBL1142534, “Design, synthesis, biological evaluation and pharmacokinetics of bis(hydroxyphenyl) substituted azoles, thiophenes, benzenes, and aza-benzenes as potent and selective nonsteroidal inhibitors of 17beta-hydroxysteroid dehydrogenase type 1 (17beta-HSD1)” (J Med Chem, 2008)
Values belong to the molecule of their own block, whether it stands above or below them. Active and inactive are the calls of the source. No cut-off for these calls is given here.

How the values were obtained:
[1] = target: T1, 17-beta-hydroxysteroid dehydrogenase type 1 (Homo sapiens, UniProt P14061); assay: (§1) Inhibition of human placental cytosolic 17beta-HSD1
T1 sequence (P14061 whole entry): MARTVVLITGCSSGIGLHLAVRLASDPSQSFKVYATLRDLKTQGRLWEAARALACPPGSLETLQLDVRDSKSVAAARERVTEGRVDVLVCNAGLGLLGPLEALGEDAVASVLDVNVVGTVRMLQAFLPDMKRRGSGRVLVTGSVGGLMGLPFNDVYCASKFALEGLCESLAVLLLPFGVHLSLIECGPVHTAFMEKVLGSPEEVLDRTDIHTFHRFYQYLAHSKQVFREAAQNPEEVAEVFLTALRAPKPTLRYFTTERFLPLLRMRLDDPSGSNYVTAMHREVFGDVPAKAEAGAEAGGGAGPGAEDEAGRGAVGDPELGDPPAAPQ

[2] = target: T2, Estrogen receptor (Homo sapiens) (UniProt P03372); assay: Displacement of [2,4,6,7-3H]17beta-estradiol from human recombinant ERalpha receptor relative to 17-beta-estradiol
T2 sequence (whole entry): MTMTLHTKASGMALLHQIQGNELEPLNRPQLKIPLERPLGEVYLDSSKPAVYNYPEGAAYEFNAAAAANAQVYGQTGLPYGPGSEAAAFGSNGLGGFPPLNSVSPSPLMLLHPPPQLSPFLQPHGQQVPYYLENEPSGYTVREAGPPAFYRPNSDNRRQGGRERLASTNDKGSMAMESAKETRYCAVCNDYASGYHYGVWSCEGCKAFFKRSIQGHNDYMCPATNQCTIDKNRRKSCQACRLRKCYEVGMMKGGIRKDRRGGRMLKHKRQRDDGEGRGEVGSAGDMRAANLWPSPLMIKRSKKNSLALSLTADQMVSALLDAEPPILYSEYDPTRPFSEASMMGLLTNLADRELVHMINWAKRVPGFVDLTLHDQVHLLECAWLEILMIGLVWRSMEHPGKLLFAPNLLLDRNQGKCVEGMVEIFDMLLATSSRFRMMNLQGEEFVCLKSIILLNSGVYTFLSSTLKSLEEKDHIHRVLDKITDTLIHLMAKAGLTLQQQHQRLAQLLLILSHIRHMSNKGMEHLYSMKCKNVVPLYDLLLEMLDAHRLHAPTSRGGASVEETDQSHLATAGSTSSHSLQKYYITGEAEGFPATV

[3] = target: Estrogen receptor beta (Homo sapiens) (UniProt Q92731); assay: Displacement of [2,4,6,7-3H]17beta-estradiol from human recombinant ERbeta receptor relative to 17-beta-estradiol
Chain of Estrogen receptor beta (Homo sapiens) (Q92731 whole entry): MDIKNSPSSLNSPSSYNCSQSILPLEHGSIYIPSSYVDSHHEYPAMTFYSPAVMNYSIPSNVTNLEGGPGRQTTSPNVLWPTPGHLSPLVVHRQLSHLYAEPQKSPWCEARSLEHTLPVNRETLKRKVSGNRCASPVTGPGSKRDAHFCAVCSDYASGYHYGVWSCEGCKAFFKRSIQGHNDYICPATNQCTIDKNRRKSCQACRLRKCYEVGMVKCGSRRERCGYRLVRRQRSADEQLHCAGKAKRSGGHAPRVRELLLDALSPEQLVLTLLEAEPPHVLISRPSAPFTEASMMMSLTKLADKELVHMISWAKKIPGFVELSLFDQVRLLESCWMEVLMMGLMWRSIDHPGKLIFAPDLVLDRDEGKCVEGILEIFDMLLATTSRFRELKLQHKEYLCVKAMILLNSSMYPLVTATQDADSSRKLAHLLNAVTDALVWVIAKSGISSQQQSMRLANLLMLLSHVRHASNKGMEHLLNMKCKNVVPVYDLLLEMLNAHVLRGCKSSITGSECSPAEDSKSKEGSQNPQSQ

[4] = Cmax in Wistar rat at 10 mg/kg, po by cassette dosing; type: ADME, organism-based; parameters: dose 10 mg/kg, route oral; settings: in vivo
Rattus norvegicus [5] = assay: Clast in Wistar rat at 10 mg/kg, po by cassette dosing; type: ADME, organism-based; parameters: dose 10 mg/kg, route oral; settings: in vivo
[6] = Tmax in Wistar rat at 10 mg/kg, po by cassette dosing; type: ADME, organism-based; parameters: dose 10 mg/kg, route oral; settings: in vivo
Rattus norvegicus [7] = assay: Tlast in Wistar rat at 10 mg/kg, po by cassette dosing; type: ADME, organism-based; parameters: dose 10 mg/kg, route oral; settings: in vivo
[8] = Half life in Wistar rat at 10 mg/kg, po by cassette dosing; type: ADME, organism-based; parameters: dose 10 mg/kg, route oral; settings: in vivo, read-out: beta t1/2 (converted)
Rattus norvegicus [9] = assay: AUC (0 to Tlast) life in Wistar rat at 10 mg/kg, po by cassette dosing; type: ADME, organism-based, Plasma; parameters: dose 10 mg/kg, route oral; settings: in vivo
in vitro [10] = settings: human, Caco-2
Description: Apparent permeability across human Caco-2 cells at 50 uM

[11] = target: T3, 17-beta-hydroxysteroid dehydrogenase type 1 (Homo sapiens) (UniProt P14061); assay: as §1
T3 sequence (whole entry): T1 sequence (P14061 whole entry)

T47D = assay: Estrogenic activity in human ER expressing T47D cells assessed as stimulation of cell proliferation at 100 nM by MTT assay; type: functional, cell-based
Cytochrome P450 1A2 = target: T4, Cytochrome P450 1A2 (Homo sapiens, UniProt P05177); assay: Inhibition of human hepatic CYP1A2; type: ADME
T4 sequence (P05177 whole entry): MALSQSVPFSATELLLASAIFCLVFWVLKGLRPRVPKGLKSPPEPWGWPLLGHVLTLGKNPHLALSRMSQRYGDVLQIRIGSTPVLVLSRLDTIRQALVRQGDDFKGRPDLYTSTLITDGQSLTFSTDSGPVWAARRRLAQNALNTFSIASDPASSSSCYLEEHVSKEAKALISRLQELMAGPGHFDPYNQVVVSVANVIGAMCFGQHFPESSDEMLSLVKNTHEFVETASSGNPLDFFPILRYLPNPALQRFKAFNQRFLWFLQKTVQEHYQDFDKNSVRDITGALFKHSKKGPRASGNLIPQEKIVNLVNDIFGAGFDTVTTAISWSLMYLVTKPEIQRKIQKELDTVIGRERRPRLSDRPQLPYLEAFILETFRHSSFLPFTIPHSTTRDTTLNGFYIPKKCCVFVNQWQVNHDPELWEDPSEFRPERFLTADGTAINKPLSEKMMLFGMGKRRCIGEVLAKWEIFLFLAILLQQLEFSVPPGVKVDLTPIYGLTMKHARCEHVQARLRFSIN

Cytochrome P450 2B6 = target: T5, Cytochrome P450 2B6 (Homo sapiens, UniProt P20813); assay: Inhibition of human hepatic CYP2B6; type: ADME
T5 sequence (P20813 whole entry): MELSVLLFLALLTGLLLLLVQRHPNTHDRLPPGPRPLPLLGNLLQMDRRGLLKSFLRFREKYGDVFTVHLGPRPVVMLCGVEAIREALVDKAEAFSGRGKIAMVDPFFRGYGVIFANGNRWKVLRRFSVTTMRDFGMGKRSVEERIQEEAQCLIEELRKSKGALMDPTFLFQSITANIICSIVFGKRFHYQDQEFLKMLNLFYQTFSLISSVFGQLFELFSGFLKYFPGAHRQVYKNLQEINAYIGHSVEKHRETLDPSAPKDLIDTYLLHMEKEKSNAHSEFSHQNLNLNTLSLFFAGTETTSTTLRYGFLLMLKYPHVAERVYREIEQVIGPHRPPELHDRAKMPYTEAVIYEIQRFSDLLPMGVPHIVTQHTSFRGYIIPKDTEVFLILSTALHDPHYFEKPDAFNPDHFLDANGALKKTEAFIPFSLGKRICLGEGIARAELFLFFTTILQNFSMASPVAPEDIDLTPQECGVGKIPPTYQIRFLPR

Cytochrome P450 2C19 = Cytochrome P450 2C19 (Homo sapiens, UniProt P33261); assay: Inhibition of human hepatic CYP2C19; type: ADME
Chain of Cytochrome P450 2C19 (P33261 whole entry): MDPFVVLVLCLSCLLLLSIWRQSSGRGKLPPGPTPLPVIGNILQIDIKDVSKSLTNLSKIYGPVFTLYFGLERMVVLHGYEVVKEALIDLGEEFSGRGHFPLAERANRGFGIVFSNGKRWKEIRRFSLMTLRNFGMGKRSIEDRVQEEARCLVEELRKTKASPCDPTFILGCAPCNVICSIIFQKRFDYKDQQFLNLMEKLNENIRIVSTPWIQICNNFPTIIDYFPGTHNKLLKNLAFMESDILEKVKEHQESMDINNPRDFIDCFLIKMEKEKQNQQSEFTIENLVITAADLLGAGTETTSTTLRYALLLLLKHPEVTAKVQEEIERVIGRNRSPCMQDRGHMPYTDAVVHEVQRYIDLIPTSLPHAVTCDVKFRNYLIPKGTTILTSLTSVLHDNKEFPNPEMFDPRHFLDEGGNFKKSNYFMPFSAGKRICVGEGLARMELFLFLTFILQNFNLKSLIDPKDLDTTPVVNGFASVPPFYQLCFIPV

Cytochrome P450 2D6 = Cytochrome P450 2D6 (Homo sapiens, UniProt P10635); assay: Inhibition of human hepatic CYP2D6; type: ADME
Chain of Cytochrome P450 2D6 (P10635 whole entry): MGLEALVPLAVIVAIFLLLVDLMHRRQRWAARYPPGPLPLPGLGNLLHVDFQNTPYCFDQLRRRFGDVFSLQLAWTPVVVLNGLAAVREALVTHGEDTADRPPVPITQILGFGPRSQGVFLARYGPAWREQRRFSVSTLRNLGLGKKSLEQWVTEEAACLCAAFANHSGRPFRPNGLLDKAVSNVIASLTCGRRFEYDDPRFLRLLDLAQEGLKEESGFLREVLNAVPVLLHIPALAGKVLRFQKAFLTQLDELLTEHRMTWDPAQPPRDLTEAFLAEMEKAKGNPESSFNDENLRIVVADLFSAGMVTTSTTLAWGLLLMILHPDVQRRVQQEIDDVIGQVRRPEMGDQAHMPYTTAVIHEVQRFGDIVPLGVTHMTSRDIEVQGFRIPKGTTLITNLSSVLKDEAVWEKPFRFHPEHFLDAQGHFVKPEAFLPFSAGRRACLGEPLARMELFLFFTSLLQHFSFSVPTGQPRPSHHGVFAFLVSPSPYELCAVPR

Cytochrome P450 3A4 = Cytochrome P450 3A4 (Homo sapiens, UniProt P08684); assay: Inhibition of human hepatic CYP3A4
Chain of Cytochrome P450 3A4 (P08684 whole entry): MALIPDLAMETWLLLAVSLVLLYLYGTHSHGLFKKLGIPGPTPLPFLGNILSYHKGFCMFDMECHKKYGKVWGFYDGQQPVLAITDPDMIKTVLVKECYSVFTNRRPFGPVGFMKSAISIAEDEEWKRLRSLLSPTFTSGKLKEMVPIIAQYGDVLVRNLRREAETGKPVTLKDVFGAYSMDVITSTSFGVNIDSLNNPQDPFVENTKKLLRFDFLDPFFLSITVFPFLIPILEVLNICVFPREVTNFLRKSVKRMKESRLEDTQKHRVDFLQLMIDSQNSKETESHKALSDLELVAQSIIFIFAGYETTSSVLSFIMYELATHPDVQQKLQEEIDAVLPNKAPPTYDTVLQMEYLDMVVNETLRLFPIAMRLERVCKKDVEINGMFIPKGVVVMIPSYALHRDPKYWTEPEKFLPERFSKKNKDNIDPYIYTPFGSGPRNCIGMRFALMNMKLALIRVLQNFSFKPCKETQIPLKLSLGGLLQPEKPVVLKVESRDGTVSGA

in vitro [12] = settings: Sprague-Dawley, rat, liver microsomes
in vitro [13] = settings: Sprague-Dawley, rat, liver microsomes; remark: listed apart in the source
[14] = target: T6, 17-beta-hydroxysteroid dehydrogenase type 2 (Homo sapiens, UniProt P37059); assay: Inhibition of human placental microsomal 17beta-HSD2
T6 sequence (P37059 whole entry): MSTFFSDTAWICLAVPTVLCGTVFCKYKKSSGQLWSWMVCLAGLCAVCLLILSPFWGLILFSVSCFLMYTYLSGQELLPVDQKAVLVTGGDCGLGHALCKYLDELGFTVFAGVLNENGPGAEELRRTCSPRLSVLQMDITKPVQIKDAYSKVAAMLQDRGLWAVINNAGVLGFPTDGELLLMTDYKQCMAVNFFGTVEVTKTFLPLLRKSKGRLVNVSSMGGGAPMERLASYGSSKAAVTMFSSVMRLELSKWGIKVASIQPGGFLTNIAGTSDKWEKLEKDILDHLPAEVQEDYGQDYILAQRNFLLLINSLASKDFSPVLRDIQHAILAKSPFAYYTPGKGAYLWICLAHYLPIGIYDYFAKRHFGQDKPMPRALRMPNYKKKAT

Cytochrome P450 2C9 = Cytochrome P450 2C9 (Homo sapiens, UniProt P11712); assay: Inhibition of human hepatic CYP2C9; type: ADME
Chain of Cytochrome P450 2C9 (P11712 whole entry): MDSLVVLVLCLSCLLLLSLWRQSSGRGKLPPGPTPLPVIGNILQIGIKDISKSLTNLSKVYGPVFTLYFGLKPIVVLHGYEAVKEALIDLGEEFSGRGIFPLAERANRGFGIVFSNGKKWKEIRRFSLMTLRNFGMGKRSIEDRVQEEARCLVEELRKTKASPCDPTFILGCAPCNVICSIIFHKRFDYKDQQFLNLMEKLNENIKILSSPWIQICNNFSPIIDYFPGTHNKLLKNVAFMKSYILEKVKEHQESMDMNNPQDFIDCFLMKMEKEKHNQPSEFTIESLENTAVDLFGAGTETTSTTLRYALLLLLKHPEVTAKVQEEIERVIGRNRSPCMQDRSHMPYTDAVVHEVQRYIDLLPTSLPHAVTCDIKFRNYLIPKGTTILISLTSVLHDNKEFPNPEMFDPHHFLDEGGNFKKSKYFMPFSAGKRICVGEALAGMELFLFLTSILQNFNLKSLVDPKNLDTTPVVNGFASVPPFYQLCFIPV

IC50 [1]: > 5 µM
SMILES: Oc1cccc(-c2cc(-c3ccccc3)cs2)c1

RBA [2]: < 0.01%
RBA [3]: 0.01%
Cmax [4]: 0.0078 µg/mL
Cz (Rattus norvegicus [5]): 6.6 ng/mL
Tmax [6]: 8 h
tz (Rattus norvegicus [7]): 10 h
half-life [8]: 1.5 h
AUC (Rattus norvegicus [9]): 0.0992 µg·h/mL
Papp at 50 µM (in vitro [10]): 78 nm/s
SMILES: Oc1ccc(-c2cnc(-c3cccc(O)c3)s2)cc1

IC50 [1]: > 1 µM
SMILES: Oc1ccc(-c2csc(-c3cccc(O)c3)n2)cc1

Activity [11]: inactive
SMILES: Oc1ccc(-c2cnc(-c3cccc(O)c3)[nH]2)cc1

IC50 [1]: > 1 µM
SMILES: Oc1ccc(-c2cccc(-c3ccc(O)cc3)c2)cc1

Activity [11]: inactive
SMILES: Cn1nc(-c2cccc(O)c2)nc1-c1ccc(O)cc1

Activity [11]: inactive
SMILES: Oc1ccc(-c2ccc(-c3ccccc3)s2)cc1

IC50 [1]: 0.455 µM
SMILES: Oc1cccc(-c2csc(-c3cccc(O)c3)n2)c1

IC50 [1]: > 1 µM
SMILES: Oc1ccc(-c2ccsc2-c2cccc(O)c2)cc1

IC50 [1]: 0.336 µM
SMILES: Oc1cccc(-c2nnc(-c3cccc(O)c3)s2)c1

Activity [11]: inactive
SMILES: Oc1cccc(-c2cccs2)c1

IC50 [1]: 0.471 µM
SMILES: Oc1ccc(-c2ccc(-c3cccc(O)c3)cc2)cc1
Activity (T47D): inactive

IC50 [1]: > 5 µM
SMILES: Oc1cccc(-c2cn(-c3cccc(O)c3)nn2)c1

IC50 [1]: 0.185 µM
SMILES: Oc1cccc(-c2csc(-c3cccc(O)c3)c2)c1

IC50 [1]: 0.173 µM
SMILES: Oc1cccc(-c2ccc(-c3cccc(O)c3)s2)c1

SMILES: Oc1ccc(-c2ccc(-c3ccc(O)cc3)[se]2)cc1
Activity [11]: inactive

Activity [11]: inactive
SMILES: Oc1ccc(-c2csc(-c3ccc(O)cc3)c2)cc1

Activity [11]: inactive
SMILES: Cn1nc(-c2cccc(O)c2)nc1-c1cccc(O)c1

Activity [11]: inactive
SMILES: Cn1nc(-c2ccc(O)cc2)nc1-c1cccc(O)c1

Activity [11]: inactive
SMILES: Oc1ccc(-c2ccsc2-c2ccc(O)cc2)cc1

IC50 [1]: 0.151 µM
RBA [2]: 0.01%
RBA [3]: 0.1%
IC50 (Cytochrome P450 1A2): > 4 µM
IC50 (Cytochrome P450 2B6): > 4 µM
IC50 (Cytochrome P450 2C19): > 4 µM
IC50 (Cytochrome P450 2D6): > 4 µM
IC50 (Cytochrome P450 3A4): 1.9 µM
Papp at 50 µM (in vitro [10]): 144 nm/s
half-life at 1 µM (in vitro [12]): 0.31 h
microsomal CLint at 1 µM (in vitro [13]): 248 µL/min/mg
SMILES: Oc1ccc(-c2cc(-c3cccc(O)c3)cs2)cc1
Activity (T47D): inactive

Activity [11]: inactive
SMILES: c1ccc(-c2ccc(-c3ccccc3)s2)cc1

Activity [11]: inactive
SMILES: Oc1ccc(-c2ccc(-c3ccc(O)cc3)s2)cc1

IC50 [1]: > 5 µM
SMILES: Oc1ccc(-c2nc(-c3cccc(O)c3)cs2)cc1

IC50 [1]: 0.169 µM
SMILES: Oc1cccc(-c2nsc(-c3cccc(O)c3)n2)c1

IC50 [1]: 0.413 µM
SMILES: Oc1ccc(-c2nsc(-c3cccc(O)c3)n2)cc1
Activity (T47D): inactive

IC50 [1]: 0.077 µM
RBA [2]: 0.01%
RBA [3]: 0.1%
SMILES: Oc1ccc(-c2csc(-c3cccc(O)c3)c2)cc1

IC50 [1]: > 1 µM
SMILES: Oc1ccc(-c2cccc(-c3cccc(O)c3)c2)cc1

Cmax [4]: 0.106 µg/mL
Cz (Rattus norvegicus [5]): 54 ng/mL
Tmax [6]: 3 h
tz (Rattus norvegicus [7]): 10 h
half-life [8]: 1.2 h
AUC (Rattus norvegicus [9]): 1.2 µg·h/mL
SMILES: Oc1cccc(-c2nnc(-c3cccc(O)c3)nn2)c1

Activity [11]: inactive
SMILES: Cn1nc(-c2ccc(O)cc2)nc1-c1ccc(O)cc1

Activity [11]: inactive
SMILES: Oc1ccc(-c2csc(-c3ccc(O)cc3)n2)cc1

SMILES: Oc1cccc(-c2ccc(-c3cccc(O)c3)[se]2)c1
Activity [11]: inactive

RBA [2]: 0.01%
RBA [3]: < 0.01%
SMILES: Oc1cccc(-c2ccc(-c3cccc(O)c3)nc2)c1

IC50 [1]: 0.173 µM
IC50 [14]: 2.26 µM
RBA [2]: < 0.001%
RBA [3]: 0.01%
IC50 (Cytochrome P450 1A2): > 4 µM
IC50 (Cytochrome P450 2B6): > 4 µM
IC50 (Cytochrome P450 2C19): > 4 µM
IC50 (Cytochrome P450 2D6): > 4 µM
IC50 (Cytochrome P450 2C9): 1.9 µM
IC50 (Cytochrome P450 3A4): 2.1 µM
Papp at 50 µM (in vitro [10]): 125 nm/s
half-life at 1 µM (in vitro [12]): 0.378 h
microsomal CLint at 1 µM (in vitro [13]): 203 µL/min/mg
SMILES: Oc1cccc(-c2ccc(-c3cccc(O)c3)cc2)c1
Activity (T47D): inactive

IC50 [1]: 0.243 µM
IC50 (Cytochrome P450 1A2): > 4 µM
IC50 (Cytochrome P450 2B6): > 4 µM
IC50 (Cytochrome P450 2C19): > 4 µM
IC50 (Cytochrome P450 2D6): > 4 µM
half-life at 1 µM (in vitro [12]): 0.21 h
microsomal CLint at 1 µM (in vitro [13]): 367 µL/min/mg
SMILES: Oc1cccc(-c2cnc(-c3cccc(O)c3)s2)c1
Activity (T47D): inactive

IC50 [1]: 0.069 µM
Papp at 50 µM (in vitro [10]): 220 nm/s
SMILES: Oc1ccc(-c2ccc(-c3cccc(O)c3)s2)cc1
Activity (T47D): inactive

IC50 [1]: > 1 µM
SMILES: Oc1ccc(-c2ncc(-c3cccc(O)c3)s2)cc1

Activity [11]: inactive
SMILES: Oc1ccc(-c2cnc(-c3ccc(O)cc3)s2)cc1
